Test system: PD-LID rat model
Assay: Dyskinesia-like symptom (AIMs) score in PD-LID rat model
Format: in vivo
Conditions: continuous subcutaneous infusion 60 mg/mL (mean 0.78 mg/kg/hour); day 0 of implanting the pump; vs solvent group
Method: To make a PD-LID rat model, a mixture of levodopa methyl ester hydrochloride (6 mg/kg; Sigma-Aldrich) dissolved in saline and benserazide hydrochloride (15 mg/kg; Sigma-Aldrich) (hereinafter, also referred to as “levodopa containing solution”) was intraperitoneally administered once daily to 6-OHDA-lesioned rats. The levodopa containing solution was repeatedly administered for 3 weeks or longer to observe and evaluate the behavior. The behavior was observed and evaluated in a transparent acrylic cage for 1 minute every 20 minutes after 20 minutes from the intraperitoneal administration of the levodopa containing solution, up until after 3 hours from administration. […] The sum of the scores for Limb AIMs, Axial AIMs, and Orolingual AIMs in 3 hours was used as the total dyskinesia-like symptom (AIMs) score. Individuals with a total AIMs score of less than 10 were excluded from the test as not manifesting a dyskinesia-like symptom. The behavior was observed and evaluated before the drug evaluation date. The rats were assigned to each dosing group by using the 3 hour total dyskinesia-like symptom (AIMs) score, Locomotive behavior score, and rat body weight as indicators, which were used for evaluation of drugs. […]
After 4 hours from application, a levodopa containing solution was intraperitoneally administered to observe and evaluate the behavior. Individuals with 50% or more of the tape agent coming off during the test were excluded from analysis. […]
As in Example 2, a levodopa containing solution was repeated administered to 6-0HDA-lesioned rats for 3 weeks or longer to observe and evaluate the behavior. The behavior was observed and evaluated before the drug evaluation date. The rats were assigned to each dosing group by using the 3 hour dyskinesia-like symptom (AIMs) score, Locomotive behavior score, and rat body weight as indicators, which were used for evaluation of drugs. However, individuals with a total AIMs score of less than 10 were excluded from the test as lacking manifestation of a dyskinesia-like symptom. Individuals with a body weight deviating 10% or more from the mean body weight were also excluded from the test to minimize variation in the dosage for each individual. […]
After 4 hours, a levodopa containing solution was administered to observe and evaluate the behavior. […]
The prepared solution was used after injection into an ALZET® Osmotic Pump MODEL 2ML2 (4.53 μL/hour; DURECT) for releasing a drug solution at a stable rate for 2 weeks. […]
The behavior was observed and evaluated using the same method as Example 2. […] After 5 minutes, a levodopa containing solution was intraperitoneally administered, and the behavior was observed and evaluated. The results in the drawings are indicated in terms of mean value […] standard error. The test results were statistically analyzed by comparison with the solvent administration group by Steel test using the total dyskinesia-like symptom (AIMs) score in 3 hours and total dyskinesia-like symptom score in 100 to 180 minutes as parameters. * indicates p<0.05, meaning that there is a significant difference.
The behavior was observed and evaluated using the same method in Example 2. […] The test results were statistically analyzed by comparison with the solvent administration group by Steel test by using the total dyskinesia-like symptom (AIMs) score in 3 hours and total dyskinesia-like symptom score in 100 to 180 minutes as parameters.

## tandospirone citrate
  dyskinesia-like symptoms (total AIMs score in 3 hours): Significant improvement in dyskinesia-like symptoms

From US11628169B2, “Therapeutic drug for motor complications in Parkinson's disease” (Sumitomo Pharma Co., Ltd., priority 2020, dated 2023)
